# Measured values taken from patent US6288110A, “Pharmaceutical compositions comprising disulfiram” (Yeda Research and Development Co Ltd., priority 1998, dated 2001).
# “Also recorded” adds a separate entry of the source.
# Assays:
# [1] = test system: Sarcoma 180, EL-4 leukemia or L1210 murine leukemia; settings: cited from earlier work
# fibroblasts = assay: Induction of apoptosis, fibroblasts; type: cell-based
# [2] = test system: capillary endothelial (BCE) cells; assay: TUNEL assay for apoptosis, BCE cells; type: cell-based, bovine; settings: 1 μM, 6 hours
# Procedure: Cells were cultured on microscope slides for 48 hours in presence of growth media as described above, until reaching 40-50% confluency. Disulfiram was then added to the cells for 6 hours or for 20 hours in the case of BALB/MK keratinocytes, fixed with 4% paraformaldehyde and washed three times with PBS. Apoptosis was analyzed by the in situ TUNEL staining carried out as described (Wride, 1994). Briefly, microscope slides were incubated for 15 min in 2×SSC buffer at 60° C., washed in DDW and incubated with 20 μg/ml proteinase K (Boehringer Mannheim) for 15 min at room temperature. After a wash with DDW, endogenous peroxidases were inactivated by incubating the slides with 2% H2 O2 in PBST (PBS with 0.05% Tween 20) for 10 min at room temperature. Slides were then incubated in TdT buffer (Boehringer Mannheim) for 5 min at room temperature, and a reaction mixture containing 5×TdT buffer and 1 μl biotin-21-dUTP (Clontech, 1 mM stock) and 8 units of the TdT enzyme (Boehringer Mannheim) in total volume of 50 μl was subsequently added. The reactions were carried out at 37° C. for 1.5 hr in a humid chamber. The slides were washed in 2×SSC, DDW and finally with PBS and covered with 10% skim milk in PBST for 15 min. […]
# [3] = test system: toxic side effects of HECNU; settings: rats; cited from earlier work
# [4] = test system: Lewis lung carcinoma (D122) metastasis in the lungs; assay: Lewis lung carcinoma metastasis, footpad model; type: in vivo, C57/BL mice
# Text: The Lewis lung carcinoma (3LL), which originated spontaneously in a C57/BL/6J (H-2^b) mouse, is a malignant tumor that produces spontaneous lung metastases. The metastatic clone D122, kindly provided by Prof. Lea Eisenbach (Weizmann Institute of Science, Rehovot, Israel), was used herein for tissue culture and for in vivo experiments. The cell cultures were maintained in DMEM supplemented with 10% heat-inactivated FCS, glutamine, antibiotics, sodium pyruvate and nonessential amino acids.
# Two metastasis models were used: 1. The footpad model. 2. The i.v. model. The assay of tumor development in the footpad model and evaluation of lung metastases was done as previously described (Eisenbach, 1983). Briefly, eight mice in each experimental group were inoculated with 2×10^5 D122 cells in 0.05 ml PBS in the right hind footpad. Three days following tumor cells injection, mice were treated per os by disulfiram or saline 3 times per week. The tumors became palpable within 11-19 days. Local tumor growth was determined by measuring the footpad diameter with a calipers. At 26-40 days following inoculation, when local tumor reached a diameter of 6-7 mm, mice were anesthetized with a single dose of 75 mg/kg ketamine+3 mg/kg xylazine (i.p.) and the tumor-bearing leg was removed by amputation above the knee joint. To measure progress of metatases the mice were killed 24 days following amputation by injecting 20 mg/mouse xylazine i.p. and lungs were weighed.
# Twenty-four days following the removal of the tumor-bearing leg, lungs were weighed.
# all cell types examined = assay: DNA synthesis, all cell types examined, higher concentrations; type: cell-based; settings: >10 μM, all cell types examined (not shown)
# Procedure: C6 rat glioma cells were plated in 96-well plates (Nunc, Denmark) (5000 cells per well) in DMEM with 5% FCS. After 6 hours the cells were rinsed and incubated for 48 hours in serum free medium. 5% FCS or growth factors were then added to the cells for 24 hours (triplicates). ^3 H-methyl-thymidine (5μCi/ml) (Rotem Ind. Ltd., Israel) was added to the cells for the last 14 hours. The cells were rinsed with 100 μl methanol for 10 minutes, followed by 200 μl 5% trichloroacetic acid, and then rinsed and lysed with 150 μl 0.3M NaOH. Radioactive thymidine incorporated into the DNA was determined for 1 min with 3 ml scintillation liquid (ULTIMA GOLD Packard) in a β-counter. DNA synthesis assays were performed in triplicates.
# Bovine capillary endothelial cells (BCE) and bovine aortic BSMC were plated in 24-well plates (6000 cells per well) in 500 μl DMEM medium supplemented with 10% Colorado calf serum (CCS) (GIBCO, USA) and GPS. After 24 hours, medium was changed to starvation medium (2% CCS, 0.5% BSA, GPS) for 24 hours. ^3 H-methyl-thymidine (5 μCi/ml) was added for the last 6 hours. DNA synthesis assays were performed as described above, in triplicates. […]
# Disulfiram was prepared in 0.1 mM stock solutions in DMSO. […] Inhibition was calculated as percentage of DNA synthesis of control.
# C6 glioma cells = assay: Cell rounding, C6 glioma cells; type: cell-based, rat; settings: 2 μM
# bladder cancer = settings: N-butyl-N-(4-hydroxybutyl)nitrosamine or N-butyl-N-(3-carboxypropyl)nitrosamine, rats; cited from earlier work
compound,measurement,setting,value
"CCN(CC)C(=S)SSC(=S)N(CC)CC [disulfiram, Bis(diethylthiocarbamoyl) disulfide]",effect on anti-tumor activity of ifosfamide and cyclophosphamide,[1],without compromising their anti-tumor activity
same,induction of apoptosis,fibroblasts,fails to induce apoptosis
same,apoptosis by TUNEL method,[2],labeled; also recorded: induced into apoptosis
same,effect on anti-tumor potency of HECNU,[3],without inhibiting its anti-tumor potency
same,protection against toxic side effects of HECNU,[3],protected rats
same,metastasis on the lungs compared with water-fed control (in words),"[4]; 30 μg, 3 times a week, 24 days, n=6, p=0.005",significantly smaller
same,lowering of the metastatic load in the lungs,"[4]; 30 μg/mouse, 24 days following removal of tumor-bearing leg",~10 fold
same,decrease in the metastatic load in the lungs (in words),[4]; 120 μg/mouse (not shown),only slight decrease
same,deaths of disulfiram-treated mice,"[4]; by 24th day following leg removal, control 50% died",no disulfiram-treated mice died
same,mice with no metastases at all,[4]; disulfiram-treated group,two out of six
same,inhibition at higher concentrations,all cell types examined,became less inhibitory
same,cell rounding,C6 glioma cells,did not change their shape to the rounded form
same,interference with induction of bladder cancer,bladder cancer,interfere with induction of cancer
